Results on one compound are retold here after patent US20030031658A1, “Targeting of endosomal growth factor processing as anti-cancer therapy” (priority 1999, published 2003).

Assay [1] concerns endosomal IGF-I proteolysis. Put plainly: IGF-1 proteolysis assay, liver endosomal extract. It counts as biochemical, rat. As to the method:
H-59 is a highly metastatic subline of the Lewis lung carcinoma with metastatic predilection for the liver, (Brodt et al 1986). Human breast carcinoma cell line MCF-7 was a gift from Dr. Mader (Dept of Biochemistry, University of Montreal, PQ, Canada). Endosomal fractions were prepared from livers of male Sprague-Dawley rats after an 18 h period of fasting. The livers were homogenized and the endosomal fractions isolated by discontinuous sucrose gradient centrifugation and collected at the 0.25 M to 1.0 M sucrose interface (20, 21, 24). The soluble extract (ENs) from the endosomal fractions was isolated by freeze/thawing in 5 mM Na-phosphate pH 7.4, and disrupted in the same hypotonic medium using a small Dounce homogenizer (15 strokes with the tight Type A pestle) followed by centrifugation at 300,000×gav for 30 min as described previously (20, 21, 24).
These preparations were incubated for various lengths of time at 37° C. with 10-^6 M unlabeled or 50,000 cpm [^125I]-labeled IGF-1 in 200 or 400 μl of 50 mM citrate-phosphate pH 5, respectively. The integrity of the radiolabeled ligand was assessed by precipitation with 10% trichloroacetic acid (Authier et al, 1995). […] Eluates were monitored on-line for absorbance at 214 nm with a LC spectrophotometer.

For another assay, the system named is human IGF-I receptor. Kind of assay: Fluorocytometry of cell surface IGF-1 receptors with mAb αIR3, MCF-7. It counts as cell-based. As to the method:
(§1) The ligand-binding assay and fluorocytometry were used to measure cell surface IGF-1 receptors on the murine H-59 and human MCF-7 cells, respectively. […] Incubation was for 1 h at 37° C. following which the cells were rinsed and lysed in 0.01 N NaOH containing 0.1% Triton X-100 and 0.1% SDS and the radioactivity measured. The number of cells/plate at the time of the assay was determined from triplicate control wells which were manipulated in a similar manner. The Ligand program (27, 28) was used to calculate the number of IGF-1 binding sites per cell. IGF-1 receptors on MCF-7 cells were immunofluorescence labeled using 5 μg/ml mAb αIR3 and an FITC-conjugated goat anti-mouse IgG (diluted 1:50). […] Labeled cells were fixed in PBS containing 1% formalin and analyzed using a FACS Calibur System (Becton-Dickinson, San Jose, Calif.).

Another assay relates to MMP-2. Kind of assay: IGF-1-mediated induction of MMP-2 synthesis (Northern, Western, zymography). It is filed as cell-based, murine. An excerpt: This medium was replenished on alternate days for 12 days. […] Blots were probed with a 1:500 dilution of mAb Ab-45 to MMP-2 and an alkaline phosphatase conjugated affinity purified, goat anti rabbit IgG, diluted 1:2000. For Northern blotting, a ^32P-labeled 1.1-Kb human MMP-2 and an 800-bp rat cyclophilin cDNA fragment were used as hybridization probes.

Assay [2] deals with IGF-IR β subunit and substrates. Kind of assay: Immunoprecipitation and anti-phosphotyrosine Western blot, H-59. It is filed as cell-based, murine. As to the method:
(§2) Cells were then washed with PBS, solubilized in 30 mM Hepes pH 7.4, 150 mM NaCl, 1% Triton X-100, and spun at maximal speed in a microfuge for 15 min. Cell lysates (1 to 3 mg) were then immunoprecipitated respectively with anti-Shc, anti-IRS-1 or anti-IGF-IR antibodies overnight at 4° C. Immunoprecipitates were collected by addition of Protein A-Sepharose beads, washed three times with lysis buffer and resuspended finally in Laemmli sample buffer (Long et al 1986a). Immunoprecipitates were resolved by SDS-PAGE and transferred onto nitrocellulose membranes followed by immunoblotting with anti-phosphotyrosine antibodies or with antibodies to IRS-1, Shc or IGF-1R followed by HRP—conjugated goat anti-mouse or goat anti-rabbit IgG antibodies.

Assay [3] relates to IGF-I binding sites on H-59 cells. Put plainly: Ligand-binding assay of cell surface IGF-1 receptors, H-59. More on the design: species or system murine. As to the method:
as §1

Assay [4] relates to IGF-IR β subunit and substrates. Kind of assay: Immunoprecipitation and anti-phosphotyrosine Western blot, MCF-7. It is filed as cell-based, human. As to the method:
as §2

In a further assay the test system is H-59 cells. Put plainly: IGF-I induced thymidine incorporation with E-64, H-59. It counts as cell-based, murine.
A further assay deals with H-59 tumor cells. The conditions noted are these: in vivo; cited from earlier work.
Assay [5] deals with IGF-I proteolysis in H-59 and MCF-7 cell lysates. Kind of assay: IGF-1 proteolysis assay, tumor cell lysates. It counts as biochemical. The method, then:
These preparations were incubated for various lengths of time at 37° C. with 10-^6 M unlabeled or 50,000 cpm [^125I]-labeled IGF-1 in 200 or 400 μl of 50 mM citrate-phosphate pH 5, respectively. The integrity of the radiolabeled ligand was assessed by precipitation with 10% trichloroacetic acid (Authier et al, 1995). To measure proteolysis of the unlabeled IGF-1, the samples were acidified with acetic acid (15%) and immediately loaded onto a reverse-phase HPLC column. Reverse-phase HPLC was performed on a Waters model 600 liquid chromatograph equipped with a model U6K sample injector fitted with a […] and a mBondapak C18 column (Waters, 0.39×30 cm, […]). Samples were chromatographed using as eluent a mixture of 0.1% TFA in water (solvent A) and 0.1% TFA in acetonitrile (solvent B) with a flow rate of 1 ml/min. Elution was carried out using two sequential linear gradients followed by an isocratic elution: an initial gradient of 0-20% solvent B (30 min); a second gradient of 20-39% solvent B (15 min); and a third isocratic elution of 39% solvent B (15 min). Eluates were monitored on-line for absorbance at 214 nm with a LC spectrophotometer.

For another assay, the system named is MCF-7 cells. Kind of assay: IGF-I induced thymidine incorporation with E-64, MCF-7. It counts as cell-based, human.
The next assay deals with IGF-IR. Put plainly: IGF-IR mRNA and total immunoprecipitable receptor levels. It counts as cell-based. The following applies: H-59 and MCF-7. The method, then:
as §2

Consider `CC(C)C[C@H](NC(=O)[C@H]1O[C@@H]1C(=O)O)C(=O)NCCCCN=C(N)N` (relative stereo) [E-64, trans-epoxysuccinyl-L-leucylamido (4-guanidino)-butane], for which the “increase in TCA-soluble radioactivity over time (IGF-I proteolysis)” value in [1] (endosomal fractions, radioiodinated IGF-I, 1 hr) is “completely abolished”; in assay [5] (cell lysates, radioiodinated IGF-I, 1 hr), “completely abolished”. In addition, the “IGF-I degradation products by reverse phase HPLC” value in assay [1] (liver parenchymal endosomal fractions, acidic pH) was “absent following E-64 treatment”; in assay [5] (lysates of E-64-treated tumor cells, acidic pH), “absent following E-64 treatment”. Besides, the “reduction in the number of immunolabeled cells” value with human IGF-I receptor (MCF-7, 40 min after addition of ligand) was 45%. Also, the “mean intensity of fluorescence” value with human IGF-I receptor (MCF-7, 40 min after addition of ligand (declining from 255)) is given as 82. Besides, in the assay with MMP-2 (H-59, E-64 10 μg/ml), the “reduction of MMP-2 mRNA synthesis” value worked out at 2 fold. The “MMP-2 production and activity” value in the assay with MMP-2 (Western blotting and gelatin zymography, E-64 10 μg/ml) was “decreased MMP-2 production and activity”. For the same compound, the “ligand-induced tyrosine phosphorylation of p52shc” value in [2] is “increase”. In addition, in assay [3] (H-59, E-64 treated (untreated 3.9×10^5)), the “number of IGF-I binding sites” value is 1.8×10^5 sites/cell. The “reduction of the number of IGF-I binding sites” value in [3] (H-59, E-64 treated vs untreated) is given as “more than 2 fold”. Also, in assay [4], the “tyrosine phosphorylated IRS-1” value is “increase”. In addition, the “incorporation of 3H-thymidine in response to IGF-I” value in the assay on H-59 cells (H-59) and in the assay on MCF-7 cells (MCF-7) was “completely abrogated” throughout. Also, the IGF-I induced proliferation result in the assay on H-59 cells (H-59, E-64 10 μg/ml) is “abolished”; with MCF-7 cells (MCF-7, E-64 10 μg/ml), “abolished”. In addition, the “liver colonization by H-59 tumor cells” value in the assay with H-59 tumor cells is recorded as “inhibited liver colonization”. The “IGF-IR mRNA levels” value in the assay with IGF-IR is “In neither of these cell types did E-64 treatment cause a reduction”.
